This is an account of results in patent publication US12171854B2, “Heterocyclic-dithiol click chemistry” (Northeastern University, priority 2017, dated 2024).

Several values for one entry are separate records, joined by “and”; a condition that tells them apart may be missing. Equal values may be shown once. Entries after “also recorded” stand apart in the source; their conditions may differ.

One may read the EC50 as the concentration that produces a half-maximal response. Lower therefore signals an effect from little substance.

The target of data set [1] is T1, WT SOD1 (Homo sapiens, UniProt P00441).
T1 construct: made in house; host or cells: EGy118ΔSOD1 yeast, vector YEp-351
The data set can be described thus: SOD1 cross-linking kinetics, mass spectrometry assay (percent covalent dimer). The format is biochemical. As to conditions: for % of SOD1 cross-linked after 10 min of incubation: 50 μM SOD1, 1000 μM compound (20× excess), pH 7.4, 10 min; for binding to single Cys residues (free Cys111 and Cys6) of SOD1: any sample; for cross-linking of SOD1, result in words (FIG. 13): 1:1 ratio of SOD1 dimer:cross-linker. An excerpt:
The reaction was monitored using a mass spectrometry (MS) assay that uses a combination of increased voltage within the region of hypersonic gas expansion and brief treatment with 10% formic acid to create exclusively monomeric SOD1 or covalently cross-linked SOD1 dimer. Formic acid also quenches the reaction, transforming any reactive thiolates to unreactive thiols. As a result, if no reaction occurs, only apo SOD1 monomer is detected (FIG. 2, top). […] Given sufficient time for thiolates to be oxidized to sulfenic acid (which occurs on the order of days-weeks), even 1,2-dithiane was expected to cross-link SOD1. After 72 h of incubation with 1,2-dithiane, 11% of SOD1 had formed the expected covalent dimer (FIG. 5).
Human WT SOD1 was expressed in yeast. […] Dilution in HPLC-Grade water to 1 mM cyclic disulfide was performed prior to experimentation. As a negative control, 50 μM human WT SOD1 was incubated at 37° C. with 4% HPLC-grade methanol. At every time point, 1 μL of each sample was removed from their respective reaction vial for analysis. Samples were briefly (˜30 seconds) incubated at room temperature with 10% formic acid to remove metals from SOD1 and quench cross-linking reaction prior to mass spectrometry analysis. Samples were then diluted to 1 μM SOD1 in 50:50 acetonitrile:water, 0.1% FA and analyzed by direct infusion into a Bruker SolariX XR FT-ICR mass spectrometer. The percent dimer formation was calculated by comparing the relative dimer (31,808 Da) and monomer (15,844 Da) MaxEnt deconvoluted peak heights (Dimer/(Dimer+Monomer)). Identical methods were used in the kinetics of α-lipoic acid and β-lipoic acid. Kinetics of 1,2-dithiepane vs. 1,2-dithiepane-1-oxide were performed at a 1:1 ratio of SOD1 dimer:cross-linker.

Data set [2] addresses T2, C111S SOD1 (Homo sapiens, UniProt P00441, C112S).
T2 construct: made in house; host or cells: EGy118ΔSOD1 yeast, vector YEp-351
The data set can be described thus: Localization of cross-link using point mutated C111S SOD1 (LC-MS). The format is biochemical. As to conditions: 10 μM SOD1, 100 μM compound, overnight, room temperature. The method, then:
Aliquots from each of the SOD1 incubations were individually diluted ten-fold with H2O containing 0.1% formic acid and analyzed using reversed phase C18 LC-MS on a Bruker HCT Ultra ion trap. The resulting data were processed using DataAnalysis 3.4 (Bruker Daltonics). Mass spectra were averaged across the retention times corresponding to when SOD1 eluted and were deconvoluted to determine the molecular weight of the uncharged species.

The target of data set [3] is T1, WT SOD1. The data set can be described thus: In vitro glutathione competition assay. It is filed as biochemical. The method, then: Purified WT SOD1 was diluted to 10 μM in 10 mM ammonium acetate, pH 7.4. […] Samples were briefly (30 seconds) incubated at room temperature with 10% formic acid to remove metals from SOD1 prior to mass spectrometry analysis. Samples were then diluted to 1 μM SOD1 in 50:50 acetonitrile:water, 0.1% FA and analyzed by direct infusion into a Bruker Solarix XR FT-ICR mass spectrometer. The percent dimer formation was calculated by comparing the relative dimer (31,808 Da) and monomer (15,844 Da) MaxEnt deconvoluted peak heights (Dimer/(Dimer+Monomer))

Data set [4] concerns the target T1, WT SOD1. The data set can be described thus: In vitro DTT competition assay. The format is biochemical. As to conditions: 1:1 cross-linker:DTT (equimolar), 24 h, 37° C. As for the experimental part: Purified WT SOD1 was diluted to 50 μM in 10 mM ammonium acetate, pH 7.4. […] DTT solutions were made in 100% HPLC grade H2O. DTT solution concentrations were 1 mM, 2 mM and 4 mM. Samples were left to incubate at 37° C. for 24 h. Samples were then diluted to 1 μM SOD1 in 50:50 acetonitrile:water, 0.1% FA and analyzed by direct infusion into a Bruker Solarix XR FT-ICR mass spectrometer

Data set [5] concerns the target T3, SOD1 in Hep G2 cells (Homo sapiens, UniProt P00441).
T3 construct: endogenous in cells; host or cells: Hep G2
The data set can be described thus: SOD1 cross-linking in Hep G2 cells, western blot. The format is cell-based. The note with it: for cross-linking of SOD1 in cells, result in words: Hep G2 cells, increasing concentrations, compared with α-lipoic acid. As for the experimental part:
Hep G2 cells were cultures in DMEM with 10% fetal bovine serum and penicillin/streptomycin in 96 well Costar® Corning CellBIND plate with 5% CO2 at 37° C. The cells were cultured to monolayer confluency. […] Stocks were diluted twenty-fold in 1×PBS (final DMSO 5%). Cells were treated with 200 uL of compound and incubated for 30 minutes at 37° C. 5% CO2. Cells were washed with 1×PBS and 20 μL of 6× nonreducing sample buffer was added to each well. The 96 well plate was heated to 90° C. for 10 minutes. Samplers were spun at 14000 RPM for 5 minutes in a Beckman Coulter Microfuge®18 centrifuge. Samples were run using a Bio Rad Mini-Protean electrophoresis chamber on 12% precast TGX polyacrylamide gels at 150V. After separation was complete, gels were extracted from the cassettes and incubated in an in-house transfer buffer for 10 minutes are 90° C. to ensure thorough transfer of protein bands and thorough binding of antibody (25 mM Tris, 192 mM glycine, 10 mM 2-mercaptoethanol, 0.1% SDS). Transfer was performed with a Bio Rad Trans-blot turbo transfer system using a trans-clot turbo transfer pack. Membranes were dried, blocked with 5% milk for 2 h at room temperature. Membranes were then probed with primary antibody, anti-SOD1 antibody SOD100 overnight at 4° C. Membranes are incubated with HRP-labeled secondary antibodies and visualized using ECL Western Blotting Substrate and imaged using the ChemiDoc MP.
Background: In western blotting, separated proteins are transferred to a membrane and probed.

Data set [6] addresses T4, SOD1 in HeLa cells (Homo sapiens, UniProt P00441).
T4 construct: endogenous in cells; host or cells: HeLa
The data set can be described thus: SOD1 cross-linking in HeLa cells, western blot. It is filed as cell-based. As to conditions: EC50 for cross-linking of SOD1, HeLa cells. As for the experimental part:
HeLa cells were cultured in DMEM with 10% fetal bovine serum and penicillin/streptomycin in 24 well Costar® Corning CellBIND plate with 5% CO2 at 37° C. The cells were cultured to monolayer confluency. […] The 100 mM solution diluted to various concentrations with 1×PBS solution. 1 mL of solutions was added to the HeLa cells in the 24 well plate. […] Cells were washed 2× with 1 mL PBS. After removing the second PBS wash, the cells were then treated with 6× non-reducing SDS sample buffer and collected. The collected cell lysate was divided into two parts. One half was treated with 5% β-ME, to remove bound cyclic disulfides, as negative controls. The other half was treated with equal amount of milliQ water. All the cell lysate samples were then heated at 80° C. for 10 minutes in an Eppendorf Thermomixer. The samples were spun at 14000 rpm for 5 minutes in Beckman Coulter Microfuge centrifuge. HeLa cell extracts were separated on 12% SDS-polyacrylamide TrisHCl gels run at 80 V at room temperature. Proteins were transferred to nitrocellulose membranes for Western blotting. Monomer and covalently-linked dimer SOD1 were detected using the rabbit polyclonal anti-SOD1 antibody SOD100. Membranes are incubated with HRP-labeled secondary antibodies and visualized using ECL Western Blotting Substrate and imaged using the ChemiDoc MP.

Data set [7] deals with SH-SY5Y cells. The format is cell-based. The note with it: 24 h. As for the experimental part:
Human immortalized neuroblastoma cells (SH-SY5Y) were purchased from ATCC (Manassas, Virginia, USA). Cells were grown in Eagle's Minimum Essential Medium (EMEM) supplemented with 10% fetal bovine serum at 37° C. and 5% CO2 to >70% confluency. […] Following incubation with 1,2-dithaine-1-oxide, 22 μL of PrestoBlue® was added to each well and allowed to incubate for 10 min at 37° C. Excitation/emission was measured at 560/590 (in nm) using an Infinite® 200 plate reader (Tecan, Mannedorf, Switzerland). Cell viability was quantified relative to untreated cells.

For data set [8] the following is noted: with reduced glutathione; cited from earlier work.
Setting [9] is: 50 μM SOD1, 20× excess compound.
[10] abbreviates: 10× compound and 100× reduced glutathione.

T3 sequence (P00441 2-154 limits assumed): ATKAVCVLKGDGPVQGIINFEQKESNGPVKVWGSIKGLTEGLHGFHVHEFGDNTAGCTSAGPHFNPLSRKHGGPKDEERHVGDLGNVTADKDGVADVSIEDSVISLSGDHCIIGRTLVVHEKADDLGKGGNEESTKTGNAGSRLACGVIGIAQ
T1 sequence (P00441 2-154 limits assumed): as above
T4 sequence (P00441 2-154 limits assumed): as above
T2 sequence (P00441 2-154 C112S limits assumed): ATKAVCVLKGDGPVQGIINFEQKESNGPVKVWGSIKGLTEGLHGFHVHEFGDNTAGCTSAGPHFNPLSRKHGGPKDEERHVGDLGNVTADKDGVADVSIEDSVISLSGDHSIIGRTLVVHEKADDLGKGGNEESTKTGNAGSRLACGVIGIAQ

Turning to `[O-][S+]1CCCCS1` (stereo not shown) [1,2-dithiane-1-oxide], the “% of SOD1 cross-linked after 10 min of incubation” value in data set [1] (37° C.) worked out at 95%. In data set [1] (setting [9]), the “cross-linking of SOD1, result in words” value is “rapid and complete dithiolate cross-linking”. Also, the “binding to single Cys residues (free Cys111 and Cys6) of SOD1” value in data set [1] is given as “no binding to single Cys residues”. In addition, the “overall second order rate constant of cross-linking product formation” value in data set [1] (multi-concentration kinetics, protocol of Singh et al.) was 250 M⁻¹ s⁻¹. In addition, in data set [2], the “covalent dimer formation with C111S SOD1” value is “No cross-linking was observed; also recorded: no covalent dimer formation”. For the same compound, the “cross-linking of SOD1 in the presence of glutathione, result in words” value in data set [3] (10:1 ratio of glutathione:compound) is “proceeded to completion; also recorded: can efficiently cross-link SOD1”. Further, the “cross-linking yield in the presence of glutathione” value in data set [3] (setting [10]) worked out at 100%. Further, the “rate of cross-linking in the presence of glutathione” value in data set [3] (setting [10]) is “decreased”. The “cross-linking of SOD1 in the presence of DTT, result in words” value in data set [4] is “proceeded to completion; also recorded: ability to cross-link the thiol pair of SOD1”. Further, the EC50 in data set [5] (EC50 for cross-linking of SOD1, Hep G2 cells, 30 min incubation, western blot) is ~5 µM and 1 to 5 µM; in data set [6] it was ~5 µM and 1 to 5 µM. For the same compound, in data set [7], the “concentration at which cell viability is equivalent to untreated cells, relative to EC50” value came out at 50 fold.
Turning to `C1CCSSC1` [1,2-dithiane], in data set [1] (37° C.), the “% of SOD1 cross-linked after 10 min of incubation” value was determined as 0%. In data set [1] (setting [9]), the “cross-linking of SOD1, result in words” value was “slow cross-link formation”. For the same compound, in data set [1] (50 μM SOD1, 20× excess compound, 37° C., 72 h), the “% of SOD1 forming covalent dimer after three days (72 h)” value worked out at 11%. Besides, in data set [1], the “binding to single Cys residues (free Cys111 and Cys6) of SOD1” value was “no binding to single Cys residues”.
Take `[O-][S+]1CCCCCS1` (stereo not shown) [1,2-dithiepane-1-oxide]: the “cross-linking of SOD1, result in words (FIG. 13)” value in data set [1] is “rapid and complete cross-link of SOD1”.
Turning to `C1CCSSCC1` [1,2-dithiepane], in data set [1], the “cross-linking of SOD1, result in words (FIG. 13)” value is “does not”.
Turning to `[O-][S+]1CCCCCCS1` (stereo not shown) [1,2-dithiocane-1-oxide], the “cross-linking of SOD1, result in words (FIG. 15)” value in data set [1] was “rapid and complete cross-link of SOD1”.
`C1CCCSSCC1` [1,2-dithiocane]: the “cross-linking of SOD1, result in words (FIG. 15)” value in data set [1] was “does not”.
For `OC1CSSCC1O` (stereo not shown) [oxidized DTT], the “extrapolated half-life of thiol-disulfide exchange” value in data set [8] is over 3.33 h.
β-lipoic acid: the “rate and extent of covalent cross-linking of SOD1 versus α-lipoic acid, in words” value in data set [1] (mass spectrometry assay) is “Both rate and extent of covalent cross-linking of SOD1 is increased”. Also, in data set [1] (mass spectrometry assay, compared to ALA), the “more SOD1 cross-linked in vitro compared to ALA” value was determined as 30%. For the same compound, the “cross-linking of SOD1 in cells, result in words” value is “cross-links SOD1 in Hep G2 cells, and does so more efficiently than the cyclic disulfide, α-lipoic acid” in data set [5]; “cross-linked SOD1 in cells” in data set [5] (listed as BLA).
